Measured values published in the CheMixHub ionic liquid set.

Assay: xn = mol fraction of the nth substance listed

O=S(=O)([N-]S(=O)(=O)C(F)(F)F)C(F)(F)F.[K+] + O=S(=O)([N-]S(=O)(=O)C(F)(F)F)C(F)(F)F.[Li+]
100 kPa, frequency 1 MHz, x2 = 0.43
Settings	electrical conductivity [S/m]
442.3 K	0.359
452.3 K	0.479
462.7 K	0.624
473.6 K	0.794
483 K	0.99
492.3 K	1.19
502.3 K	1.42
512.6 K	1.66
523.4 K	1.93
531.6 K	2.25
543 K	2.48
552.2 K	2.77
561.6 K	3.1
571.3 K	3.53

100 kPa, x2 = 0.43
Settings	viscosity [mPa·s]
442.5 K	179
452.5 K	127
463 K	90
473.9 K	63.7
483.1 K	50.6
492.6 K	39.1
502.5 K	31.6
512.8 K	26.4
523.6 K	21.8
531.9 K	18.4
543.5 K	14.6
552.5 K	13.6
561.8 K	12.5

FC(F)C(F)(F)COC(F)(F)C(F)F + O=S(=O)([N-]S(=O)(=O)C(F)(F)F)C(F)(F)F.[Li+] + O=S1(=O)CCCC1
303.15 K, 101 kPa
Settings	electrical conductivity [S/m]
x2 = 0.1429, x3 = 0.5714	0.073
x2 = 0.1818, x3 = 0.5455	0.09
x2 = 0.25, x3 = 0.5	0.09
x2 = 0.4, x3 = 0.4	0.079

O=S(=O)([N-]S(=O)(=O)C(F)(F)F)C(F)(F)F.[Li+] + O=S(=O)([O-])C(F)(F)F.[Li+] + O
viscosity [mPa·s], 100 kPa
Settings	x2 = 0, x1 = 0.112	x2 = 0, x1 = 0.1896	x2 = 0, x1 = 0.2333	x2 = 0, x1 = 0.2547	x2 = 0, x1 = 0.2741
298.15 K	5.2	15.8	30.7	42.3	54.1
308.15 K	4.3	11.5	21.5	29	36.1
318.15 K	3.4	8.6	15.8	20.9	25.5
328.15 K	2.8	6.6	12	15.6	18.7

O=S(=O)([N-]S(=O)(=O)C(F)(F)F)C(F)(F)F.[Li+] + OCCO
Settings	electrical conductivity [S/m]
333 K, 100 kPa, frequency 1 MHz, x1 = 0.5	0.8

Settings	viscosity [mPa·s]
333 K, 100 kPa, x1 = 0.5	21.68

CC[N+]1(C)CCCC1.[Br-] + OC[C@H]1O[C@@H]2O[C@H]3[C@H](O)[C@@H](O)[C@@H](O[C@H]4[C@H](O)[C@@H](O)[C@@H](O[C@H]5[C@H](O)[C@@H](O)[C@@H](O[C@H]6[C@H](O)[C@@H](O)[C@@H](O[C@H]7[C@H](O)[C@@H](O)[C@@H](O[C@H]8[C@H](O)[C@@H](O)[C@@H](O[C@H]1[C@H](O)[C@H]2O)O[C@@H]8CO)O[C@@H]7CO)O[C@@H]6CO)O[C@@H]5CO)O[C@@H]4CO)O[C@@H]3CO + O
298.15 K, 100 kPa
Settings	viscosity [mPa·s]
x2 = 1.587e-05, x1 = 0.001261	1.38
x2 = 1.587e-05, x1 = 0.001531	1.4
x2 = 1.588e-05, x1 = 0.0009911	1.37
x2 = 4.77e-05, x1 = 0.001534	1.45
x2 = 4.771e-05, x1 = 0.001264	1.42
x2 = 4.772e-05, x1 = 0.0009931	1.39

CCCCCCCCCC[n+]1ccn(C)c1.[Cl-] + OC[C@H]1O[C@@](CO)(O[C@H]2O[C@H](CO)[C@@H](O)[C@H](O)[C@H]2O)[C@@H](O)[C@@H]1O + O
298.15 K, 101.3 kPa
Settings	electrical conductivity [S/m]
x2 = 0, x1 = 6.46e-06	0.00385
x2 = 0, x1 = 9.55e-06	0.00548
x2 = 0, x1 = 1.262e-05	0.00708
x2 = 0, x1 = 1.582e-05	0.00872
x2 = 0, x1 = 1.894e-05	0.0103
x2 = 0, x1 = 2.2e-05	0.0118
x2 = 0, x1 = 2.507e-05	0.01334
x2 = 0, x1 = 2.8e-05	0.0148
x2 = 0, x1 = 3.092e-05	0.0162
x2 = 0, x1 = 3.384e-05	0.0176
x2 = 0.003591, x1 = 7.14e-06	0.00361
x2 = 0.003591, x1 = 1.162e-05	0.00554
x2 = 0.003591, x1 = 1.987e-05	0.00901
x2 = 0.003591, x1 = 2.367e-05	0.0106
x2 = 0.003591, x1 = 2.764e-05	0.01214
x2 = 0.003591, x1 = 3.131e-05	0.0136
x2 = 0.003591, x1 = 3.559e-05	0.01531
x2 = 0.003591, x1 = 3.942e-05	0.0168
x2 = 0.003591, x1 = 4.357e-05	0.0184
x2 = 0.007156, x1 = 4.94e-06	0.00234
x2 = 0.007156, x1 = 9.37e-06	0.0041
x2 = 0.007156, x1 = 1.394e-05	0.00589
x2 = 0.007156, x1 = 1.816e-05	0.00752
x2 = 0.007156, x1 = 2.215e-05	0.00905
x2 = 0.007156, x1 = 2.62e-05	0.0106
x2 = 0.007156, x1 = 3.004e-05	0.01205
x2 = 0.007156, x1 = 3.378e-05	0.0135
x2 = 0.007156, x1 = 3.734e-05	0.0148
x2 = 0.007156, x1 = 4.078e-05	0.01606
x2 = 0.0107, x1 = 8.82e-06	0.00336
x2 = 0.0107, x1 = 1.279e-05	0.00469
x2 = 0.0107, x1 = 1.666e-05	0.00596
x2 = 0.0107, x1 = 2.02e-05	0.00712
x2 = 0.0107, x1 = 2.387e-05	0.00828
x2 = 0.0107, x1 = 2.723e-05	0.00939
x2 = 0.0107, x1 = 3.056e-05	0.0105
x2 = 0.0107, x1 = 3.344e-05	0.01139
x2 = 0.0107, x1 = 3.674e-05	0.0124
x2 = 0.0107, x1 = 3.975e-05	0.0134
x2 = 0.01421, x1 = 8.46e-06	0.00279
x2 = 0.01421, x1 = 1.229e-05	0.00388
x2 = 0.01421, x1 = 1.596e-05	0.00491
x2 = 0.01421, x1 = 1.986e-05	0.00599
x2 = 0.01421, x1 = 2.304e-05	0.00688
x2 = 0.01421, x1 = 2.641e-05	0.0078
x2 = 0.01421, x1 = 2.985e-05	0.00874
x2 = 0.01421, x1 = 3.276e-05	0.00953
x2 = 0.01421, x1 = 3.602e-05	0.01042
x2 = 0.01421, x1 = 3.892e-05	0.01121
x2 = 0.0177, x1 = 1.052e-05	0.00291
x2 = 0.0177, x1 = 1.539e-05	0.00407
x2 = 0.0177, x1 = 2e-05	0.00515
x2 = 0.0177, x1 = 2.419e-05	0.00614
x2 = 0.0177, x1 = 2.851e-05	0.00714
x2 = 0.0177, x1 = 3.269e-05	0.0081
x2 = 0.0177, x1 = 3.635e-05	0.00895
x2 = 0.0177, x1 = 4.032e-05	0.00985
x2 = 0.0177, x1 = 4.414e-05	0.0107

CCn1cc[nH+]c1.O=S(=O)([N-]S(=O)(=O)C(F)(F)F)C(F)(F)F + c1c[nH]cn1
Settings	electrical conductivity [S/m]
303.15 K, 100 kPa, x1 = 0.948	0.427
